Source: EP0232423A1, “CIRCULATION IMPROVING AGENT” (GRELAN PHARMACEUTICAL CO., LTD., priority 1985, dated 1987)
Counter-ions that a name gives are not always drawn. Values belong to the compound of their own block, whether it stands above or below them.

Tests used:
[1] = system: isolated femoral artery; experiment: Relaxation of isolated femoral artery contracted by 50 mM KCl; type: cell-based, Mongrel dogs; settings: Canis lupus familiaris, 50 mM KCl contraction; for inhibition at 100 µM: 10^-4 M; for inhibition at 10 µM: 10^-5 M; for inhibition at 1 µM: 10^-6 M; for inhibition at 0.1 µM: 10^-7 M; for EC50: relaxation of isolated femoral artery, read-out: ED50 (the source's name)
Description: (§1) Mongrel dogs of either sex (body weight 10-17 kg) were killed by bleeding under anesthetization with pentobarbital sodium (tradename: Nembutai ® Abbott Co., USA). Thereafter, the basilar and femoral arteries were extracted and attached blood and connective tissues were carefully removed in a dish filled with Krebs bicarbonate solution (composition: NaCl 117.7 mM, KC1 4.7 mM, CaCl2 2.5 mM, MgSo4 1.2 mM, glucose 10 mM, NaHCO3 24.4 mM). Thereafter, ring preparations were made therefrom. This preparation was suspended in a bathing tube of 10 ml filled with Krebs bicarbonate solution aerated with 95 % 02 and 5 % C02.
(§2) Then, samples of basilar and femoral arteries were contracted by application of 50 mM KC1. After confirming that the contraction was sustained, (a) compound (I) (erythro form) lactate, (b) compound (I) (threo form) lactate and (c) ifenprodil; [2-(4-benzyl- piperidino-l-(4-hydroxyphenyl)propane-l-ol] tartrate were, respectively, administered as test compounds and the dose-relaxation response was examined.
(§3) A strain gauge transducer (model SB-lT manufactured by Nihon Koden Co.) was employed for recording of change of tension and isometric contraction was recorded on a recorder (model QPD 53 made by Hitachi Ltd . ) .

[2] = system: isolated basilar artery; experiment: Relaxation of isolated basilar artery contracted by 50 mM KCl; type: cell-based, Mongrel dogs; settings: Canis lupus familiaris, 50 mM KCl contraction; for inhibition at 1 µM: 10^-6 M; for inhibition at 0.1 µM: 10^-7 M; for inhibition at 0.01 µM: 10^-8 M; for EC50: relaxation of isolated basilar artery, read-out: ED50 (the source's name)
Description: as §1, §2, §3

[3] = system: ddY male mice; experiment: Prolongation of gasping time in complete cerebral ischemic (decapitated) animals; type: in vivo; settings: for Ratio of time (%): prolongation as compared with the control group; for Duration time of gasping: decapitated after 30 minutes
Description: After 30 minutes from administration, the.mice were decapitated and the duration time of gasping was measured. The control group was drug-untreated.

[4] = system: platelets of rabbit; experiment: Fluidity of platelet membrane (fluorescence polarization); type: cell-based; design: Fluorescence polarization: unit not given here; settings: for Fluorescence polarization: fluidity increases as value decreases
Excerpt: The activity of compound (I) (lactate) and ifenprodil tartrate against the fluidity of platelet membrane was examined according to a known method (Biochimica et Biophysica Acta, vol. 798, page 210, 1984) using platelets of rabbit and using n-butyl alcohol as a positive control.

[5] = system: isolated femoral artery; experiment: K-induced 45Ca influx in isolated femoral artery; type: cell-based, Mongrel dogs; settings: 10^-5 M + 50 mM KCl
Excerpt: (§4) Using the isolated basilar artery and femoral artery treated in accordance with Test Example 2, the activity of (a) compound (I) (lactate), (b) ifenprodil tartrate and (c) verapamil hydrochloride against ^45Ca influx and ^45Ca uptake were examined by the conventional method (J. Membran. Biol., vol. 59, page 19, 1981).

[6] = system: ddY male mice; experiment: Ameliorative activity against damage of cerebral hypoxia (reduced pressure); type: in vivo; settings: for Time required for stoppage of respiration: 30 minutes before, pressure reduced to 160 mmHg
Description: Thirty mg/kg each of compound (I) (lactate) and ifenprodil tartrate and 16 mg/kg of phentolamine, which is an a-adrenoceptor blocker, were intraperitoneally administered to ddY male mice, respectively. […] Time from start of reduction of pressure until stop of respiration in the mice was measured. The control group was drug-untreated.

[7] = system: α1-adrenoceptor; experiment: Antagonism of phenylephrine (α1-agonist) contraction in saphenous vein; type: cell-based, Mongrel dogs; settings: α1 - agonist: phenylephrine; saphenous vein; 15 minutes treatment
Excerpt: (§5) In this experiment, phenylephrine and clonidine were used as al-agonist and a2-agonist, respectively, and these agonists were cumulatively applied to obtain a dose-response curve.

[8] = system: isolated femoral artery; experiment: Ca antagonistic action: Ca-induced contraction in K-depolarized femoral artery; type: cell-based, Mongrel dogs; settings: Canis lupus familiaris, 0.25 h, 50 mM KCl, Ca-free bath, cumulative CaCl2, compound applied 15 minutes before, read-out: pA2 values on Ca-induced contraction in depolarized muscle by K (converted)
Description: (§6) The same measurements as in Test Example 2 were carried out using the isolated basilar artery and isolated femoral artery treated in accordance with the method of Test Example 2.
(§7) For examination of the Ca antagonistic action, the depolarization of both isolated arteries was induced with 50 mM KC1 in a bathing solution from which Ca had been removed and then CaCl2 was cumulatively applied thereto. As test compounds, (a) compound (I) (erythro form) lactate and (b) ifenprodil tartrate were applied at 15 minutes before addition of CaCl2.

[9] = system: α2-adrenoceptor; experiment: Antagonism of clonidine (α2-agonist) contraction in saphenous vein; type: cell-based, Mongrel dogs; settings: α2 - agonist: clonidine, non-competitive antagonism, 15 min
Excerpt: as §5

[10] = system: isolated femoral artery; experiment: K-induced 45Ca uptake in isolated femoral artery; type: cell-based, Mongrel dogs; settings: 50 mM KCl alone 586.0 ± 17.9
Excerpt: as §4

[11] = system: isolated basilar artery; experiment: PGF2α-induced 45Ca uptake in isolated basilar artery; type: cell-based, Mongrel dogs; settings: 10^-5 M + 10^-5 M PGF2α; PGF2α alone 166.2 ± 6.0
Excerpt: as §4

[12] = system: isolated basilar artery; experiment: Ca antagonistic action: Ca-induced contraction in K-depolarized basilar artery; type: cell-based, Mongrel dogs; settings: Canis lupus familiaris, 0.25 h, 50 mM KCl, Ca-free bath, cumulative CaCl2, compound applied 15 minutes before, read-out: pA2 values on Ca-induced contraction in depolarized muscle by K (converted)
Description: as §6, §7

[13] = system: isolated coronary artery; experiment: Relaxation of isolated coronary artery; type: cell-based, Mongrel dogs; settings: Canis lupus familiaris, read-out: ED50 (the source's name)
Description: as §1, §2, §3
Experiments were conducted in accordance with the method of Test Example 2 with use of the coronary artery in place of the basilar and femoral arteries. […]

[14] = system: ddY male mice; experiment: Thromboembolic respiratory depression induced by ADP; type: in vivo; settings: ADP 40 mg/kg i.v.
Description: The degree of formation of platelet thrombi in the pulmonary vessels of mice induced by intravenous administration of ADP can be measured based on the decrease in the respiratory rate. The anti-platelet thrombotic action of test drugs can be evaluated by using this decrease in the respiratory rate as a standard. […] Relative respiratory rate (%) was calculated according to the following formula. [formula] (cf. "Thrombosis Research", Vol. 35, Page 311, 1984)

[15] = pre-incubation 15 min, 50 mM KCl alone 94.6 ± 5.2
[16] = pre-incubation 45 min, 50 mM KCl alone 98.4 ± 6.8

- EC50 [1]: 7.2 µM
- EC50 [2]: 0.16 µM
Compound: C[C@@H]([C@H](O)c1ccc(OCc2ccccc2)cc1)N1CCC(Cc2ccccc2)CC1 (relative stereo) [Compound (I) (erythro form) lactate]
- inhibition at 100 µM ([1]; mean, n = 4 - 5): 85.8%
- inhibition at 10 µM ([1]; mean, n = 4 - 5): 59.9%
- inhibition at 1 µM ([1]; mean, n = 4 - 5): 34.2%
- inhibition at 0.1 µM ([1]; mean, n = 4 - 5): 1.2%
- inhibition at 0.01 µM ([1]; 10^-8 M, mean, n = 4 - 5): 0.4%
- inhibition at 1 µM ([2]; mean, n = 4 - 5): 100%
- inhibition at 0.1 µM ([2]; mean, n = 4 - 5): 39.2%
- inhibition at 0.01 µM ([2]; mean, n = 4 - 5): 7%

- EC50 [1]: 51 µM
- EC50 [2]: 0.085 µM
Compound: C[C@@H]([C@@H](O)c1ccc(OCc2ccccc2)cc1)N1CCC(Cc2ccccc2)CC1 (relative stereo) [Compound (I) (threo form) lactate]
- inhibition at 100 µM ([1]; mean, n = 4 - 5): 62.3%
- inhibition at 10 µM ([1]; mean, n = 4 - 5): 22.5%
- inhibition at 1 µM ([1]; mean, n = 4 - 5): 6.8%
- inhibition at 0.1 µM ([1]; mean, n = 4 - 5): 0%
- inhibition at 10 µM ([2]; 10^-5 M, mean, n = 4 - 5): 100%
- inhibition at 1 µM ([2]; mean, n = 4 - 5): 91.7%
- inhibition at 0.1 µM ([2]; mean, n = 4 - 5): 72.1%
- inhibition at 0.01 µM ([2]; mean, n = 4 - 5): 10.8%

Compound: CC(C)(CO)[C@@H](O)C(=O)NCCCC(=O)O [Calcium hopantenate]
- Ratio of time (%) ([3]; 300 mg/kg i.p.): 10.5%
- Duration time of gasping ([3]; 300 mg/kg intraperitoneally): 23.1 ± 0.6 s

Compound: CC(C(O)c1ccc(OCc2ccccc2)cc1)N1CCC(Cc2ccccc2)CC1 (stereo not drawn) [Compound (I) lactate]
- effect on fluidity of platelet membrane [4]: an increase in the fluitidy of platelet membrane
- K-induced ^45Ca influx in isolated femoral artery [5, 15]: 106.2 ± 4.1 n mol/g wt. tissue
- K-induced ^45Ca influx in isolated femoral artery [5, 16]: 38.2 ± 2.6 n mol/g wt. tissue
- K-induced ^45Ca influx in isolated femoral artery ([5]; pre-incubation 135 min): 28.3 ± 1.1 n mol/g wt. tissue
- Time required for stoppage of respiration ([6]; 30 mg/kg intraperitoneally): 126.1 ± 12.1 s
- pA2 value [7]: pA2 = 7.03 ± 0.04
- Kb [8]: 1.55 µM
- pD2' value [9]: pD2' = 4.87^Note 4)
- K-induced ^45Ca uptake in isolated femoral artery ([10]; 10^-4 M + 50 mM KCl): 378.8 ± 27.9 n mol/g wt. tissue
- K-induced ^45Ca uptake in isolated femoral artery ([10]; 10^-5 M + 50 mM KCl): 461.4 ± 26.7 n mol/g wt. tissue
- K-induced ^45Ca uptake in isolated femoral artery ([10]; 10^-6 M + 50 mM KCl): 724.4 ± 32.4 n mol/g wt. tissue
- Ratio of time (%) ([3]; 3 mg/kg i.p.): 3.8%
- Duration time of gasping ([3]; 3 mg/kg intraperitoneally): 21.7 ± 0.4 s
- Ratio of time (%) ([3]; 10 mg/kg i.p.): 27.8%
- Duration time of gasping ([3]; 10 mg/kg intraperitoneally): 26.7 ± 1.8 s
- Ratio of time (%) ([3]; 30 mg/kg i.p.): 116.3%
- Duration time of gasping ([3]; 30 mg/kg intraperitoneally): 45.2 ± 3.5 s
- PGF2α-induced ^45Ca uptake in isolated basilar artery [11]: 135.2 ± 12.7 (*) n mol/g wt. tissue
- Kb [12]: 0.0186 µM
- EC50 [13]: 2.2 µM

Compound: COc1ccc([C@@H]2Sc3ccccc3N(CCN(C)C)C(=O)[C@@H]2OC(C)=O)cc1 [Diltiazem-HCl]
- Relative respiratory rate (%) ([14]; 10 mg/kg oral, 1 hr after administration): 56.3 ±8.5 (n=6) %
- Relative respiratory rate (%) ([14]; 10 mg/kg oral, 2 hr after administration): 38.3 ±7.3 (n=7) %

Compound: OC[C@H]1OC(O)[C@H](O)[C@@H](O)[C@@H]1O (stereo partly drawn) [Glucose]
- Ratio of time (%) ([3]; 5.4 g/kg i.p.): 10.5%
- Duration time of gasping ([3]; 5.4 g/kg intraperitoneally): 23.1 ± 0.6 s

Compound: Cc1ccc(N(CC2=NCCN2)c2cccc(O)c2)cc1 [Phentolamine]
- Time required for stoppage of respiration ([6]; 16 mg/kg intraperitoneally): 54.5 ± 2.9 s
- effect on survival time (cerebral hypoxia) ([6]; i.p., 30 mg/kg compound (I) and ifenprodil tartrate, 16 mg/kg phentolamine): shortens it

Compound: Clc1ccccc1CN1CCc2sccc2C1 [Ticlopidine-HCl]
- Relative respiratory rate (%) ([14]; 30 mg/kg oral, 1 hr after administration, Compound (I) = erythro form): 49.3 ±4.3 (n=6) %
- Relative respiratory rate (%) ([14]; 30 mg/kg oral, 2 hr after administration, Compound (I) = erythro form): 33.9 ±7.0 (n=7) %
- Relative respiratory rate (%) ([14]; 30 mg/kg oral, 3 hr after administration, Compound (I) = erythro form): 37.2 ±10.5 (n=9) %

Compound: COc1ccc(CCN(C)CCCC(C#N)(c2ccc(OC)c(OC)c2)C(C)C)cc1OC (stereo not drawn) [Verapamil hydrochloride]
- K-induced ^45Ca influx in isolated femoral artery [5, 15]: 76.7 ± 2.0 n mol/g wt. tissue
- K-induced ^45Ca influx in isolated femoral artery [5, 16]: 29.8 ± 2.8 n mol/g wt. tissue
- K-induced ^45Ca influx in isolated femoral artery ([5]; pre-incubation 135 min): 64.1 ± 5.0 n mol/g wt. tissue
- K-induced ^45Ca uptake in isolated femoral artery ([10]; 10^-5 M + 50 mM KCl): 344.7 ± 14.4 n mol/g wt. tissue
- PGF2α-induced ^45Ca uptake in isolated basilar artery [11]: 134.0 ± 4.1 n mol/g wt. tissue

Compound: CCCCO [n-Butyl alcohol, n-butyl alcohol]
- effect on fluidity of platelet membrane [4]: an increase in the fluitidy of platelet membrane
- Fluorescence polarization ([4]; 21 µM): 7±5
- Fluorescence polarization ([4]; 42 µM): 6±5
- Fluorescence polarization ([4]; 62 µM): -14±2
